Source: ChEMBL document CHEMBL5252509, “In depth analysis of kinase cross screening data to identify chemical starting points for inhibition of the Nek family of kinases” (Medchemcomm, 2018)
pIC50, pKd: −log10 of the molar value. Each block holds one compound with its values, some of them ahead of it.

What was measured:
[1] = target: Serine/threonine-protein kinase Nek6 (Homo sapiens) (UniProt Q9HC98); assay: Inhibition of NEK6 (unknown origin) at 10 uM relative to control
[2] = target: Serine/threonine-protein kinase Nek7 (Homo sapiens) (UniProt Q8TDX7); assay: Inhibition of NEK7 (unknown origin) at 10 uM relative to control
[3] = target: T1, Serine/threonine-protein kinase Nek9 (Homo sapiens) (UniProt Q8TD19); assay: Inhibition of NEK9 (unknown origin) at 10 uM relative to control
T1 sequence (whole entry): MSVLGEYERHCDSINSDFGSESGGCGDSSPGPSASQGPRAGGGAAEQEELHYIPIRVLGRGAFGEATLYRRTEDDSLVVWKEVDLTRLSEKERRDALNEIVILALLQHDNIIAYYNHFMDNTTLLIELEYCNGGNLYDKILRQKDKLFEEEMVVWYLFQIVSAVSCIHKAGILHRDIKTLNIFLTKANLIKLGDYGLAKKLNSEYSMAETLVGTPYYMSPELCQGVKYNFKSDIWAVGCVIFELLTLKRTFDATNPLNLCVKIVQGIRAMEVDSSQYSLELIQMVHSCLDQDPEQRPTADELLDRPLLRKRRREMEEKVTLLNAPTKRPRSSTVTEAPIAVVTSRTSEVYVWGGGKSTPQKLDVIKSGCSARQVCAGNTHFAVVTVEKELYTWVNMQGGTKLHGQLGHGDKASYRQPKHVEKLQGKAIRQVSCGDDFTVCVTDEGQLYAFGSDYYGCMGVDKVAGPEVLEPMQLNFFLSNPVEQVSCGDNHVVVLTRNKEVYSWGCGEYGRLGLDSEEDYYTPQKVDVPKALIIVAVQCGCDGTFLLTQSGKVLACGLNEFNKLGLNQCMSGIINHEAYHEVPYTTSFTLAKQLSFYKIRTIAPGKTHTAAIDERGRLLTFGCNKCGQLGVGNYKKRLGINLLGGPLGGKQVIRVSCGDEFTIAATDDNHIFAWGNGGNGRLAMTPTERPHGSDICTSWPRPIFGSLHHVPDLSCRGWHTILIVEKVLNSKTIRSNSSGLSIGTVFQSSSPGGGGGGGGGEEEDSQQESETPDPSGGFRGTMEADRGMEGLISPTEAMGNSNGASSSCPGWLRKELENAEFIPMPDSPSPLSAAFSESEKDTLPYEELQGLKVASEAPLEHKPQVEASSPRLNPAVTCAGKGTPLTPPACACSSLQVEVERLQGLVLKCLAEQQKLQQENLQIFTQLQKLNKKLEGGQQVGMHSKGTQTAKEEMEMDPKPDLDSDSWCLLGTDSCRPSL

[4] = target: T2, Serine/threonine-protein kinase Nek2 (Homo sapiens) (UniProt P51955); assay: Inhibition of NEK2 (unknown origin) at 10 uM relative to control
T2 sequence (whole entry): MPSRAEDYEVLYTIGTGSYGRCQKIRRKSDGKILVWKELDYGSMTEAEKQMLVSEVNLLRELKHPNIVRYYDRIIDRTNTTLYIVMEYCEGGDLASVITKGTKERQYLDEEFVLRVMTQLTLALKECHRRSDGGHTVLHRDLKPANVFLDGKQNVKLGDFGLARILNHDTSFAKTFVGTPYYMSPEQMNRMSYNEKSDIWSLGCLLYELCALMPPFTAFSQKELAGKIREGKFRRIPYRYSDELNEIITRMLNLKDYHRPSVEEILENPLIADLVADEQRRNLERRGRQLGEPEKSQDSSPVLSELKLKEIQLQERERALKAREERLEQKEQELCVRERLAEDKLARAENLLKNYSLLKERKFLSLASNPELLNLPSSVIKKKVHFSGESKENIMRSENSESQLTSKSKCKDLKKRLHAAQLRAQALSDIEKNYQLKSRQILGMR

[5] = target: Serine/threonine-protein kinase Nek4 (Homo sapiens) (UniProt P51957); assay: Inhibition of NEK4 (unknown origin) at 10 uM relative to control
[6] = target: Serine/threonine-protein kinase Nek2 (Homo sapiens, UniProt P51955); assay: Inhibition of NEK2 (unknown origin) assessed as dissociation constant
[7] = target: T3, Serine/threonine-protein kinase Nek5 (Homo sapiens) (UniProt Q6P3R8); assay: Inhibition of NEK5 (unknown origin) at 10 uM relative to control
T3 sequence (whole entry): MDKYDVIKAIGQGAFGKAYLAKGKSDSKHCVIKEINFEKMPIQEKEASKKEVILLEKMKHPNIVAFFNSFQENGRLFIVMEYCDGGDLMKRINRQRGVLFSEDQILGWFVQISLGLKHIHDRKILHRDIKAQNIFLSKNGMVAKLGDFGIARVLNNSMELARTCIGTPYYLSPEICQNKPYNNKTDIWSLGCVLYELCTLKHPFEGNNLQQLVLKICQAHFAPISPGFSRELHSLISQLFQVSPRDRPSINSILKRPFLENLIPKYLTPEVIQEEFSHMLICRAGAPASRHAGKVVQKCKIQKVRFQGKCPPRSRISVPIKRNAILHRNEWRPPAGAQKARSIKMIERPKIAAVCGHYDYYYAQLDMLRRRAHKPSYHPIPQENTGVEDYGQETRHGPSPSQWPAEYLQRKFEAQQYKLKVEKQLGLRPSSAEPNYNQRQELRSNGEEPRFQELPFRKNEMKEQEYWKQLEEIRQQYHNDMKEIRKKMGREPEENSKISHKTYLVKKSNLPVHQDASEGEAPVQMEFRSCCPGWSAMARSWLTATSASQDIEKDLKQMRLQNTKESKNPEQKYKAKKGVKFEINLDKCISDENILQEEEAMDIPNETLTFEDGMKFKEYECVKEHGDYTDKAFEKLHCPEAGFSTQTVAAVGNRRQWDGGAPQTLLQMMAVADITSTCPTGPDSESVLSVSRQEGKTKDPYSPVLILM

[8] = target: T4, Serine/threonine-protein kinase Nek3 (Homo sapiens) (UniProt P51956); assay: Inhibition of NEK3 (unknown origin) at 10 uM relative to control
T4 sequence (whole entry): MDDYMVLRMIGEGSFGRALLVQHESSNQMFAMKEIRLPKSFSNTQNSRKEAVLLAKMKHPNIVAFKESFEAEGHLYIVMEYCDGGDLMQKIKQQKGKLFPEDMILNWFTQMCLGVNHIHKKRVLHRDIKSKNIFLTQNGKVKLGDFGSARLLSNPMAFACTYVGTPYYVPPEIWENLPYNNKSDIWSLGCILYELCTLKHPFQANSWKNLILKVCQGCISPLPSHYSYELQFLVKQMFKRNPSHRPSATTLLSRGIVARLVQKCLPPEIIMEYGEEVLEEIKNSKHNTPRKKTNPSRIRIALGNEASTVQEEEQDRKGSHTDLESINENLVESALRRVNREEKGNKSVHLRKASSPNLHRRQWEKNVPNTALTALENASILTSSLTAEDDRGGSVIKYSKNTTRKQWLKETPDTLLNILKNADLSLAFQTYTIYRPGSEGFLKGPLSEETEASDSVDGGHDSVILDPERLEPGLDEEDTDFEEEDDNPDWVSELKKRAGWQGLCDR

[9] = target: T1, Serine/threonine-protein kinase Nek9 (Homo sapiens); assay: Inhibition of NEK9 (unknown origin) at 100 nM relative to control
[10] = target: T5, Serine/threonine-protein kinase Nek1 (Homo sapiens) (UniProt Q96PY6); assay: Inhibition of NEK1 (unknown origin) at 100 nM relative to control
T5 sequence (whole entry): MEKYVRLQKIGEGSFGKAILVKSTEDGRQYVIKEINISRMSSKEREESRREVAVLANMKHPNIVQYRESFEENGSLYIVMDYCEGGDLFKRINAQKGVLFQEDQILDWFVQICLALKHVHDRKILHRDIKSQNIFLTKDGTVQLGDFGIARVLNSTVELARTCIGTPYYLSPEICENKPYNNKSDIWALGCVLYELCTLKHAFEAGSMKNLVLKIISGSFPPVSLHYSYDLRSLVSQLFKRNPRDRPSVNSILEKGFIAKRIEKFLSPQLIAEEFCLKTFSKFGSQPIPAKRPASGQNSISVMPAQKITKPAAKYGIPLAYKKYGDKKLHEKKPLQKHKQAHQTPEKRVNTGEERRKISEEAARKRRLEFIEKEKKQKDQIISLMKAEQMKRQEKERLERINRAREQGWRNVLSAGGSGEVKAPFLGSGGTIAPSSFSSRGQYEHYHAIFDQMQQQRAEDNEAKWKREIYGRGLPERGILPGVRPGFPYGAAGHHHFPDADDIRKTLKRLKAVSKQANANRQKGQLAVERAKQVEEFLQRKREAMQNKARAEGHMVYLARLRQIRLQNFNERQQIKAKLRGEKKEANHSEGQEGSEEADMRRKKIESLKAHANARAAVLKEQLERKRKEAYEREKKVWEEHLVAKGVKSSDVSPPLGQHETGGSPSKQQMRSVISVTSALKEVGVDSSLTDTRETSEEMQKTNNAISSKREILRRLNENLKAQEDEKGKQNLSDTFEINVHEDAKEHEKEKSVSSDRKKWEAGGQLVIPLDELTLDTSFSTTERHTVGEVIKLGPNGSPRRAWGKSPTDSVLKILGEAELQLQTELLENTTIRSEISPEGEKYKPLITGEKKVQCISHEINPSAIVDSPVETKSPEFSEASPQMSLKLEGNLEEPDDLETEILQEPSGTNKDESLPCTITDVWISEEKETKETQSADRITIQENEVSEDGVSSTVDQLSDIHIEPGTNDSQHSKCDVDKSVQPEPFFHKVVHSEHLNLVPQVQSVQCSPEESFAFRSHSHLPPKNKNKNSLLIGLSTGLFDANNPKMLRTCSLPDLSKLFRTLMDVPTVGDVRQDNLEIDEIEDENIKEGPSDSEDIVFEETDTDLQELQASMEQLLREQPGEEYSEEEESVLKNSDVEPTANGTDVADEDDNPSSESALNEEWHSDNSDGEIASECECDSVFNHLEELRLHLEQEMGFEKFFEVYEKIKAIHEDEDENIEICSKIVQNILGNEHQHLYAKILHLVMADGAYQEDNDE

[11] = target: T2, Serine/threonine-protein kinase Nek2 (Homo sapiens); assay: Inhibition of NEK2 (unknown origin) at 100 nM relative to control
[12] = target: Serine/threonine-protein kinase Nek6 (Homo sapiens) (UniProt Q9HC98); assay: Inhibition of NEK6 (unknown origin) at 1 uM relative to control
[13] = target: Serine/threonine-protein kinase Nek6 (Homo sapiens) (UniProt Q9HC98); assay: Inhibition of NEK6 (unknown origin) at 100 nM relative to control
[14] = target: T1, Serine/threonine-protein kinase Nek9 (Homo sapiens); assay: Inhibition of NEK9 (unknown origin) at 1 uM relative to control
[15] = target: T2, Serine/threonine-protein kinase Nek2 (Homo sapiens); assay: Inhibition of NEK2 (unknown origin) at 1 uM relative to control
[16] = target: Serine/threonine-protein kinase Nek7 (Homo sapiens) (UniProt Q8TDX7); assay: Inhibition of NEK7 (unknown origin) at 100 nM relative to control
[17] = target: Serine/threonine-protein kinase Nek7 (Homo sapiens) (UniProt Q8TDX7); assay: Inhibition of NEK7 (unknown origin) at 1 uM relative to control
[18] = target: Serine/threonine-protein kinase Nek4 (Homo sapiens) (UniProt P51957); assay: Inhibition of NEK4 (unknown origin) at 100 nM relative to control
[19] = target: Serine/threonine-protein kinase Nek7 (Homo sapiens) (UniProt Q8TDX7); assay: Inhibition of NEK7 (unknown origin) at 3 uM relative to control
[20] = target: Mitogen-activated protein kinase kinase kinase 8 (Homo sapiens, UniProt P41279); assay: Inhibition of MAP3K8 (unknown origin)
[21] = target: T6, Serine/threonine-protein kinase Nek9 (Homo sapiens, UniProt Q8TD19); assay: Inhibition of NEK9 (unknown origin)
[22] = target: Serine/threonine-protein kinase Nek3 (Homo sapiens, UniProt P51956); assay: Inhibition of NEK3 (unknown origin) assessed as dissociation constant
[23] = target: Serine/threonine-protein kinase Nek1 (Homo sapiens, UniProt Q96PY6); assay: Inhibition of NEK1 (unknown origin) assessed as dissociation constant
[24] = target: T6, Serine/threonine-protein kinase Nek9; assay: Inhibition of NEK9 (unknown origin) assessed as dissociation constant

Sequence of Serine/threonine-protein kinase Nek4 (Homo sapiens) (P51957 whole entry, looked up): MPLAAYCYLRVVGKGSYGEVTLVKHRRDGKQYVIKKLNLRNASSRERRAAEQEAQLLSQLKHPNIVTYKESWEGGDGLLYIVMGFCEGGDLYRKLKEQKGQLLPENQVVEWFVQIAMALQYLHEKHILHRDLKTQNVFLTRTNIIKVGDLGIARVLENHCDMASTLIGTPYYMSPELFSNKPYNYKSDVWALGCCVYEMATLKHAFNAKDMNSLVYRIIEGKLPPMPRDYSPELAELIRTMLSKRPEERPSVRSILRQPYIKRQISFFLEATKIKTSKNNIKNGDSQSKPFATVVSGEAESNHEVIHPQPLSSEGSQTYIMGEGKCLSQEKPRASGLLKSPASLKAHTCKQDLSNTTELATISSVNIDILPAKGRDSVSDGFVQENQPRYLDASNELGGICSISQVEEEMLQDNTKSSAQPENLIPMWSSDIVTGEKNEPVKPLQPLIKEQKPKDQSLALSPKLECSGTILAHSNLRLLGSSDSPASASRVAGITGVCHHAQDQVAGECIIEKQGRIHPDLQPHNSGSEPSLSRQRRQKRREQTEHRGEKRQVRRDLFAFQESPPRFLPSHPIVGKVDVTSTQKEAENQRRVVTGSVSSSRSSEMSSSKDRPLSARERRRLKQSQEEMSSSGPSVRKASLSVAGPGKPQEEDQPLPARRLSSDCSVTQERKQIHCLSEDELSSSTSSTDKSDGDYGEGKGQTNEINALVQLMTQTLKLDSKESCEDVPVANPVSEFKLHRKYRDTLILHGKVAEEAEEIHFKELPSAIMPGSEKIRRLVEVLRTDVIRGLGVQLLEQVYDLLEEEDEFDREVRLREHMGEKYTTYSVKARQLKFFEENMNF
Sequence of Serine/threonine-protein kinase Nek7 (Homo sapiens) (Q8TDX7 whole entry, looked up): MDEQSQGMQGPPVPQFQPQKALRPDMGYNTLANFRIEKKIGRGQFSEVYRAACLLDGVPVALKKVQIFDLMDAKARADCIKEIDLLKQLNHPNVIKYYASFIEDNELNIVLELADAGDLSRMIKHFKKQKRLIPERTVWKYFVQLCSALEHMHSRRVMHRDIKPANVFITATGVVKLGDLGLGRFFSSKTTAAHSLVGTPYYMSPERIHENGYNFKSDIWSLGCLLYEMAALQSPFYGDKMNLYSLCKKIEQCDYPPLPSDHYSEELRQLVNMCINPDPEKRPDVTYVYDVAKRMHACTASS
Sequence of Serine/threonine-protein kinase Nek6 (Homo sapiens) (Q9HC98 whole entry): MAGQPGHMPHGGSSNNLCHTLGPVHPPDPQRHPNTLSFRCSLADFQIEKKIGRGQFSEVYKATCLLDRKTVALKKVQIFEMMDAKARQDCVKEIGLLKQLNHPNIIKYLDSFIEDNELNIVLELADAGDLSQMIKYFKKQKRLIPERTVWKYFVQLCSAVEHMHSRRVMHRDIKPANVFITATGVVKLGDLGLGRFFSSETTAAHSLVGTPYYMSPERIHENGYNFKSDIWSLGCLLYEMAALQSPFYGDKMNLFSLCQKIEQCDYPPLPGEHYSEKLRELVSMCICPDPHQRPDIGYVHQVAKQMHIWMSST
Sequence of Mitogen-activated protein kinase kinase kinase 8 (P41279 whole entry): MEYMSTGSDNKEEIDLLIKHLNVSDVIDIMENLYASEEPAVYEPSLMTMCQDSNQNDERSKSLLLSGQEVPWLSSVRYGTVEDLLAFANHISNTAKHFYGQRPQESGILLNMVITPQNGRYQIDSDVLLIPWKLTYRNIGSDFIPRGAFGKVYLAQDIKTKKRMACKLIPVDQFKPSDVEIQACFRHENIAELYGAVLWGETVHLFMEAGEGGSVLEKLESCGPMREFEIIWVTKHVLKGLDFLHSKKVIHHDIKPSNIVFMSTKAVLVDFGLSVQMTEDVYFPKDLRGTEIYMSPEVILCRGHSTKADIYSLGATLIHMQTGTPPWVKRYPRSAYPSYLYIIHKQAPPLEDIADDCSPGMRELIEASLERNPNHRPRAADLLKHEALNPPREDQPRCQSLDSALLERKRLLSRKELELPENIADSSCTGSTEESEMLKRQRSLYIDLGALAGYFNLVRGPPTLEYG

Compound: CCCS(=O)(=O)Nc1ccc(F)c(C(=O)c2c[nH]c3ncc(-c4ccc(Cl)cc4)cc23)c1F [VEMURAFENIB]
% control [1]: 91%
% control [2]: 59%
% control [3]: 66%
% control [4]: 49%
% control [5]: 71%
pKd [6]: 5.30
% control [7]: 100%
% control [8]: 69%

Compound: COc1cc(Nc2ncc3c(C)nc(-c4cccc(C(F)(F)F)c4)n3n2)cc(OC)c1OC
inhibition [9]: 55%
inhibition [10]: 5%
inhibition [11]: 8%
inhibition [12]: 9%
inhibition [13]: 4%
inhibition [14]: 86%
inhibition [15]: 38%
inhibition [16]: 6%
inhibition [17]: 10%

Compound: Ic1ccc(Oc2cncc3sc(-c4nn[nH]n4)cc23)cc1
inhibition [18]: 47.5%

Compound: COCCOc1cc2c(-n3nc(-c4ccccn4)nc3N)ncnc2cc1OC
inhibition [19]: 78%

Second part, led by results:

inhibition [10]: 3%
inhibition [11]: 7%
inhibition [12]: 81%
inhibition [13]: 29%
inhibition [15]: 32%
inhibition [16]: 4%
inhibition [17]: 2%
Compound: COc1cc(Nc2ncc3c(C)nc(-c4cccc(Oc5ccccc5)c4)n3n2)cc(OC)c1OC
inhibition [9]: 3%
inhibition [14]: -1%

inhibition [18]: 89.9%
pIC50 [20]: 6.82
Compound: NC(=O)c1ccc(-c2ccc(Oc3cncc4sc(-c5nn[nH]n5)cc34)cc2)cc1

pKd [22]: > 7.00
pKd [23]: > 7.00
Compound: N#CCNC(=O)c1ccc(-c2ccnc(Nc3ccc(N4CCOCC4)cc3)n2)cc1 [MOMELOTINIB]
pIC50 [21]: 7.00
pKd [24]: > 7.00
